Data published in patent US20130053395A1, “PYRAZOLOPYRIDINE KINASE INHIBITORS” (VERTEX PHARMACEUTICALS INCORPORATED, priority 2010, published 2013).

Tests used:
[1] = target: PKC delta kinase (Homo sapiens, UniProt Q05655); test: PKC delta kinase coupled-enzyme (NADH) Ki assay; type: biochemical; details: 46 nM PKC delta, 150 μM ATP, 30° C., initial rate at 340 nM
Description: An assay buffer solution was prepared which consisted of 100 mM HEPES (pH 7.5), 10 mM MgCl2, 25 mM NaCl, 0.1 mM EDTA and 0.01% Brij. An enzyme buffer containing reagents to final assay concentrations of 0.002% Triton X-100, 200 μg/mL Phosphatidylserine, 20 μg/mL Diacylglycerol, 360 μM NADH, 3 mM phosphoenolpyruvate, 70 μg/mL pyruvate kinase, 24 μg/mL lactate dehydrogenase, 2 mM DTT, 150 μM substrate peptide ([…] SEQ ID NO. 2) and 46 nM PKC delta kinase was prepared in assay buffer. To 16 μL of this enzyme buffer, in a 384 well plate, was added 1 μL of VRT stock solution in DMSO. The mixture was allowed to equilibrate for 10 mins at 30° C. The enzyme reaction was initiated by the addition of 16 μL stock ATP solution prepared in assay buffer to a final assay concentration of 150 μM. Initial rate data was determined from the rate of change of absorbance at 340 nm (corresponding to stoichiometric consumption of NADH) using a Molecular Devices Spectramax plate reader (Sunnyvale, Calif.) over 15 mins at 30° C. For each Ki determination 12 data points covering the VRT concentration range of 0-20 μM were obtained in duplicate (DMSO stocks were prepared from an initial 10 mM VRT stock with subsequent 1:2 serial dilutions). Ki values were calculated from initial rate data by non-linear regression using the Prism software package (Prism 4.0a, Graphpad Software, San Diego, Calif.).

[2] = target: PKC theta kinase (Homo sapiens, UniProt Q04759); test: PKC theta kinase coupled-enzyme (NADH) Ki assay; type: biochemical; details: 18 nM PKC theta, 240 μM ATP, 30° C., initial rate at 340 nM
Chain of PKC theta kinase (Q04759 whole entry): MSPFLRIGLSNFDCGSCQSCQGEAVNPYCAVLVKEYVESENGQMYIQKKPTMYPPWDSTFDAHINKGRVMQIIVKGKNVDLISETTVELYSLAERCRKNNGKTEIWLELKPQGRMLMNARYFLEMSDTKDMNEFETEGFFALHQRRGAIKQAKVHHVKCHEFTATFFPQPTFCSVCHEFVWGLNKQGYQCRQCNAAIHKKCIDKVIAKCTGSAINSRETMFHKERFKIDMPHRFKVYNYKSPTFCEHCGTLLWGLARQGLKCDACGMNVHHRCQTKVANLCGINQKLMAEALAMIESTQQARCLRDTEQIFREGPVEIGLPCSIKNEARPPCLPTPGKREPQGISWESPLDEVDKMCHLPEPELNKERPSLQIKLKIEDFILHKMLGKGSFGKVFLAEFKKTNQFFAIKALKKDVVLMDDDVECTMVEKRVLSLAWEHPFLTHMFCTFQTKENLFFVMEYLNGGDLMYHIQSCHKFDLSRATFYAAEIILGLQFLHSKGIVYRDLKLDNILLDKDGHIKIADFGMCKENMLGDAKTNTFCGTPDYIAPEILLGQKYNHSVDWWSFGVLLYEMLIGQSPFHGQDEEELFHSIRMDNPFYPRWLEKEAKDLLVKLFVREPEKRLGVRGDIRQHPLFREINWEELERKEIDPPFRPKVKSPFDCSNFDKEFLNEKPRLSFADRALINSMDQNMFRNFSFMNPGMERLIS
Description: An assay buffer solution was prepared which consisted of 100 mM HEPES (pH 7.5), 10 mM MgCl2, 25 mM NaCl, 0.1 mM EDTA and 0.01% Brij. An enzyme buffer containing reagents to final assay concentrations of 0.00001% Triton X-100, 200 μg/mL Phosphatidylserine, 20 μg/mL Diacylglycerol, 360 μM NADH, 3 mM phosphoenolpyruvate, 70 μg/mL pyruvate kinase, 24 μg/mL lactate dehydrogenase, 2 mM DTT, 100 μM substrate peptide ([…] SEQ ID NO. 1) and 18 nM PKC theta kinase was prepared in assay buffer. To 60 μL of this enzyme buffer, in a 384 well plate, was added 2 μL of VRT stock solution in DMSO. The mixture was allowed to equilibrate for 10 mins at 30° C. The enzyme reaction was initiated by the addition of 5 μL stock ATP solution prepared in assay buffer to a final assay concentration of 240 μM. Initial rate data was determined from the rate of change of absorbance at 340 nm (corresponding to stoichiometric consumption of NADH) using a Molecular Devices Spectramax plate reader (Sunnyvale, Calif.) over 15 mins at 30° C. For each Ki determination 12 data points covering the VRT concentration range of 0-20 μM were obtained in duplicate (DMSO stocks were prepared from an initial 10 mM VRT stock with subsequent 1:2 serial dilutions). Ki values were calculated from initial rate data by non-linear regression using the Prism software package (Prism 4.0a, Graphpad Software, San Diego, Calif.).

Chain of PKC delta kinase (Q05655 whole entry): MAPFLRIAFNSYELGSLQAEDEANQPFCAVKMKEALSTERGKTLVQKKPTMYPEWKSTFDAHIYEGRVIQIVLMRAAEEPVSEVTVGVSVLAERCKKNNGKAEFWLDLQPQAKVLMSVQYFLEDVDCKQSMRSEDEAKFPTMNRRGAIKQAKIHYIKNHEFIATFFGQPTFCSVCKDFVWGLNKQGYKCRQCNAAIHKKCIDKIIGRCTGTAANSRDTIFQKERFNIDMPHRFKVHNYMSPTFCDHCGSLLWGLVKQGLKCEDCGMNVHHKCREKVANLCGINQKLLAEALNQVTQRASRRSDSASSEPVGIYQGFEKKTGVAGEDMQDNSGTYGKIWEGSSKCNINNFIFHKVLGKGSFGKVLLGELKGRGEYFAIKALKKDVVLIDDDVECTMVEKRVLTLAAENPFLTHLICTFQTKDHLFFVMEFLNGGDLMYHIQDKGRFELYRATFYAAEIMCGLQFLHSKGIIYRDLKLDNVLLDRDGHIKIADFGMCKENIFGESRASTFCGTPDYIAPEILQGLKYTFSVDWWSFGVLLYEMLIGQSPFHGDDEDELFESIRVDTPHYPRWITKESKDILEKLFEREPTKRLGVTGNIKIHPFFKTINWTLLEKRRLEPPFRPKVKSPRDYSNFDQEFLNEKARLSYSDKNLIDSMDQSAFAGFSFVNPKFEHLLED

Row | SMILES | Ki [1] [nM] | Ki [2] [nM]
1 | CC(C)(O)[C@@H]1CN(c2nc(-c3n[nH]c4ncccc34)c(F)cc2F)CCN1 [Compound 1, (S)-2-(4-(3,5-difluoro-6-(1H-pyrazolo[3,4-b]pyridin-3-yl)pyridin-2-yl)piperazin-2-yl)propan-2-ol] | < 500 | < 50
2 | OC[C@@H]1CN(c2nc(-c3n[nH]c4ncccc34)c(F)cc2Cl)CCN1 [Compound 9] | < 50 | < 50
3 | CC(C)C[C@@H]1CN(c2nc(-c3n[nH]c4ncccc34)c(C#N)cc2F)CCN1 [Compound 11, (R)-5-fluoro-6-(3-isobutylpiperazin-1-yl)-2-(1H-pyrazolo[3,4-b]pyridin-3-yl)nicotinonitrile] | > 1250 | < 2800
4 | OC1(C2CN(c3nc(-c4n[nH]c5ncccc45)c(F)cc3F)CCN2)CCC1 (centres unmarked) [Compound 2] | < 500 | < 1
5 | OC1(C2CN(c3nc(-c4n[nH]c5ncccc45)c(F)cc3Cl)CCN2)CCC1 (centres unmarked) [Compound 6] | < 50 | < 1
6 | CC(C)C[C@@H]1CN(c2nc(-c3n[nH]c4ncccc34)c(F)cc2Cl)CCN1 [Compound 8] |  | < 50
7 | OC[C@@H]1CN(c2nc(-c3n[nH]c4ncccc34)c(F)cc2F)CCN1 [Compound 10] | > 1250 | < 500
8 | OC1([C@@H]2CN(c3nc(-c4n[nH]c5ncccc45)c(F)cc3Cl)CCN2)CC1 [Compound 4] | < 50 | < 1
9 | CCC(O)(CC)[C@@H]1CN(c2nc(-c3n[nH]c4ncccc34)c(F)cc2F)CCN1 [Compound 3] | < 500 | < 1
10 | CC(C)(O)[C@@H]1CN(c2nc(-c3n[nH]c4ncccc34)c(F)cc2Cl)CCN1 [Compound 5] | < 50 | < 1
11 | CC(C)C[C@@H]1CN(c2nc(-c3n[nH]c4ncccc34)c(F)cc2F)CCN1 [Compound 7] |  | < 50
